Data: patent US12257287B2, “Glucagon-derived peptide and use thereof” (Tianjin Institute of Pharmaceutical Research Co., Ltd., priority 2018, dated 2025)
≈ marks a conversion by molar mass, not a printed value. Numbered stars: 1 amine (or outer) side, 2 acyl side, 3 side chain; on linkers, the order of the positions; unused ones are H or OH. Square brackets hold non-standard residues; d marks the D form. Side chains are listed from the residue outwards. Peptide text beside a SMILES is read from it. * marks the point of attachment. C18 diacid = O=C(O)CCCCCCCCCCCCCCCCC(=O)*; γGlu = O=C(O)[C@H](CCC(=O)[*:2])N[*:1]; AEEA = NCCOCCOCC(=O)O; Aib = CC(C)(N)C(=O)O

Key:
GC receptor = target: T1, GC receptor (Homo sapiens, UniProt P47871); experiment: GC receptor mediated cAMP production in vitro (HEK293 cells transfected with GC receptor); type: cell-based; conditions: 20 min at 37° C., read-out: GCGR (nM EC50)
T1 construct: expressed in transfected cells; host or cells: HEK293 cells
Source text: The medium was removed, the cells were lysed, and cAMP values were detected referring to the detection method described for the assay kit.

physchem = type: physicochemical
Description: 2 mg of the compound was weighed, dissolved in 1 ml of phosphate buffer solutions with different concentrations (10, 20 mM) and different pH values (7.5, 8.0), and centrifuged, and supernatant was taken. The peak area was measured by HPLC (chromatographic column: Aeris widepore XB-C18 3.6 mm, 4.6×150 mm; mobile phase: A: 0.05% TFA, B: 95% acetonitrile; detection wavelength: 214 nm) and compared with a corresponding sample standard solution, and the relative concentration of the test sample solution is calculated.

[1] = Short-term administration: food intake and body weight in DIO mice; type: in vivo; conditions: 30 nmol/kg once every 24 h, twice, − decrease; for Rate of change in food intake (%): at 48 hours vs day before administration; for Body weight change: at 48 hours
Description: Method: diet-induced obese mice (DIO) with an average body weight of 52.5 g were divided into model control and test groups, 5 mice in each group. The test samples were dissolved in 10 mM PBS of pH7.4, injected once every 24 h at a dose of 30 nmol/kg, and administered twice. The model group was injected with solvent. Changes in food intake and body weight at 48 hours were measured, and the change rates were calculated compared to the day before administration.

[2] = pH 7.5, Solubility, pH 7.5, 10 mM phosphate buffer
[3] = pH 7.5, Solubility, pH 7.5, 20 mM phosphate buffer
[4] = pH 8, Solubility, pH 8.0, 10 mM phosphate buffer
[5] = pH 8, Solubility, pH 8.0, 20 mM phosphate buffer
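Throughout, for Solubility: compound added at 2 mg per mL of phosphate buffer, with the dissolved amount determined in the supernatant.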

T1 sequence (P47871 26-477): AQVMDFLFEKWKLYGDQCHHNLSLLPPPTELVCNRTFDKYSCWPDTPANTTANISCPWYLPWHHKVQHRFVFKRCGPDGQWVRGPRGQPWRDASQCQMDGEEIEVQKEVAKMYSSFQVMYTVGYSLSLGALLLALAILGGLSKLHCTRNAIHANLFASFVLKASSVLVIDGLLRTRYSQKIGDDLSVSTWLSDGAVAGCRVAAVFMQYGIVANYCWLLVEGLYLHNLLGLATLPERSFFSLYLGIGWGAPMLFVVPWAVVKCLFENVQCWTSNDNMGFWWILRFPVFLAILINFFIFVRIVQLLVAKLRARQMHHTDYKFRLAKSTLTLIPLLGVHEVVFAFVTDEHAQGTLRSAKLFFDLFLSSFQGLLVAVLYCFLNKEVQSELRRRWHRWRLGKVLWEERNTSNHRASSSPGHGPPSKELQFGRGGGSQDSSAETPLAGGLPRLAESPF

Compound CCCCCCCCCCCCCCCC(=O)N[C@@H](CCC(=O)N[C@@H](CCC(=O)NCCCC[C@H](NC(=O)[C@H](C)NC(=O)[C@H](CCCCN)NC(=O)[C@H](CCCNC(=N)N)NC(=O)[C@H](CCC(=O)O)NC(=O)[C@H](CCC(=O)O)NC(=O)[C@H](CC(C)C)NC(=O)[C@H](Cc1ccc(O)cc1)NC(=O)[C@H](CCCCN)NC(=O)[C@H](CO)NC(=O)[C@H](Cc1ccc(O)cc1)NC(=O)[C@H](CC(=O)O)NC(=O)[C@H](CO)NC(=O)[C@@H](NC(=O)[C@H](Cc1ccccc1)NC(=O)[C@@H](NC(=O)CNC(=O)[C@H](CCC(N)=O)NC(=O)C(C)(C)NC(=O)[C@@H](N)Cc1c[nH]cn1)[C@@H](C)O)[C@@H](C)O)C(=O)N[C@@H](CCC(=O)O)C(=O)N[C@@H](Cc1ccccc1)C(=O)N[C@H](C(=O)N[C@@H](CCC(=O)O)C(=O)N[C@@H](Cc1c[nH]c2ccccc12)C(=O)N[C@@H](CC(C)C)C(=O)N[C@@H](CCC(=O)O)C(=O)NCC(=O)NCC(=O)N1CCC[C@H]1C(=O)N[C@@H](CO)C(=O)N[C@@H](CO)C(=O)NCC(N)=O)C(C)C)C(=O)O)C(=O)O [Compound 62] (HELM PEPTIDE1{H.[Aib].Q.G.T.F.T.S.D.Y.S.K.Y.L.E.E.R.K.A.K.E.F.V.E.W.L.E.G.G.P.S.S.G.[am]}|PEPTIDE2{[CCCCCCCCCCCCCCCC(=O)[*:2]].[gGlu].[gGlu]}$PEPTIDE1,PEPTIDE2,20:R3-3:R2$$$V2.0; N-terminus assumed) has an EC50 (GC receptor) of 0.156 nM, a solubility (physchem; [2]) of 1170 µg/mL (≈ 276 µM) and a solubility (physchem; [3]) of 850 µg/mL (≈ 200 µM). The solubility (physchem; [4]) was 1630 µg/mL (≈ 384 µM) and the solubility (physchem; [5]) was 1590 µg/mL (≈ 375 µM).
For CCCCCCCCCCCCCCCC(=O)N[C@@H](CCC(=O)N[C@@H](CCC(=O)NCCCC[C@H](NC(=O)[C@H](C)NC(=O)[C@H](CCCCN)NC(=O)[C@H](CCCNC(=N)N)NC(=O)[C@H](CCC(=O)O)NC(=O)[C@H](CC(=O)O)NC(=O)[C@H](CC(C)C)NC(=O)[C@H](Cc1ccc(O)cc1)NC(=O)[C@H](CCCCN)NC(=O)[C@H](CO)NC(=O)[C@H](Cc1ccc(O)cc1)NC(=O)[C@H](CC(=O)O)NC(=O)[C@H](CO)NC(=O)[C@@H](NC(=O)[C@H](Cc1ccccc1)NC(=O)[C@@H](NC(=O)CNC(=O)[C@H](CCC(N)=O)NC(=O)C(C)(C)NC(=O)[C@@H](N)Cc1c[nH]cn1)[C@@H](C)O)[C@@H](C)O)C(=O)N[C@@H](CCC(=O)O)C(=O)N[C@@H](Cc1ccccc1)C(=O)N[C@H](C(=O)N[C@@H](CCC(=O)O)C(=O)N[C@@H](Cc1c[nH]c2ccccc12)C(=O)N[C@@H](CC(C)C)C(=O)N[C@@H](CCC(=O)O)C(=O)NCC(=O)NCC(=O)N1CCC[C@H]1C(=O)N[C@@H](CO)C(=O)N[C@@H](CO)C(=O)NCC(N)=O)C(C)C)C(=O)O)C(=O)O [Compound 69] (HELM PEPTIDE1{H.[Aib].Q.G.T.F.T.S.D.Y.S.K.Y.L.D.E.R.K.A.K.E.F.V.E.W.L.E.G.G.P.S.S.G.[am]}|PEPTIDE2{[CCCCCCCCCCCCCCCC(=O)[*:2]].[gGlu].[gGlu]}$PEPTIDE1,PEPTIDE2,20:R3-3:R2$$$V2.0; N-terminus assumed), the EC50 (GC receptor) was 0.261 nM, the solubility (physchem; [2]) was > 2000 µg/mL and the solubility (physchem; [3]) was > 2000 µg/mL.
For CC[C@H](C)[C@H](NC(=O)[C@H](Cc1ccccc1)NC(=O)[C@H](CCC(=O)O)NC(=O)[C@H](CCCCN)NC(=O)[C@H](C)NC(=O)[C@H](C)NC(=O)[C@H](CCCNC(=N)N)NC(=O)[C@H](CCC(=O)O)NC(=O)[C@H](CC(=O)O)NC(=O)[C@H](CC(C)C)NC(=O)[C@H](Cc1ccc(O)cc1)NC(=O)[C@H](CCCCN)NC(=O)[C@H](CO)NC(=O)[C@H](CCCCNC(=O)COCCOCCNC(=O)COCCOCCNC(=O)CC[C@H](NC(=O)CCCCCCCCCCCCCCCCC(=O)O)C(=O)O)NC(=O)[C@H](CC(=O)O)NC(=O)[C@H](CO)NC(=O)[C@@H](NC(=O)[C@H](Cc1ccccc1)NC(=O)[C@@H](NC(=O)CNC(=O)[C@H](CCC(N)=O)NC(=O)[C@H](CO)NC(=O)[C@@H](N)Cc1c[nH]cn1)[C@@H](C)O)[C@@H](C)O)C(=O)N[C@@H](C)C(=O)N[C@@H](Cc1c[nH]c2ccccc12)C(=O)N[C@@H](CC(C)C)C(=O)N[C@@H](CCC(=O)O)C(=O)N[C@@H](C)C(=O)NCC(=O)NCC(=O)N1CCC[C@H]1C(=O)N[C@@H](CO)C(=O)N[C@@H](CO)C(=O)NCC(N)=O [Compound 36] (H-HSQGTFTSDK([AEEA-AEEA-γGlu-C18 diacid])SKYLDERAAKEFIAWLEAGGPSSG-NH2; N-terminus assumed), the EC50 (GC receptor) was 0.069 nM, the “Rate of change in food intake (%)” value [1] was −46% and the “Body weight change” value [1] was -1.7 g.
In the case of CC[C@H](C)[C@H](NC(=O)[C@H](Cc1ccccc1)NC(=O)[C@H](CCC(=O)O)NC(=O)[C@H](CCCCNC(=O)COCCOCCNC(=O)COCCOCCNC(=O)CC[C@H](NC(=O)CCCCCCCCCCCCCCCCC(=O)O)C(=O)O)NC(=O)[C@H](C)NC(=O)[C@H](C)NC(=O)[C@H](CCCNC(=N)N)NC(=O)[C@H](CCC(=O)O)NC(=O)[C@H](CCC(=O)O)NC(=O)[C@H](CC(C)C)NC(=O)[C@H](Cc1ccc(O)cc1)NC(=O)[C@H](CCCCN)NC(=O)[C@H](CO)NC(=O)[C@H](Cc1ccc(O)cc1)NC(=O)[C@H](CC(=O)O)NC(=O)[C@H](CO)NC(=O)[C@@H](NC(=O)[C@H](Cc1ccccc1)NC(=O)[C@@H](NC(=O)CNC(=O)[C@H](CCC(N)=O)NC(=O)C(C)(C)NC(=O)[C@@H](N)Cc1c[nH]cn1)[C@@H](C)O)[C@@H](C)O)C(=O)N[C@@H](C)C(=O)N[C@@H](Cc1c[nH]c2ccccc12)C(=O)N[C@@H](CC(C)C)C(=O)N[C@@H](CCC(=O)O)C(=O)N[C@@H](C)C(=O)NCC(=O)NCC(=O)N1CCC[C@H]1C(=O)N[C@@H](CO)C(=O)N[C@@H](CO)C(=O)NCC(N)=O [Compound 28] (H-H[Aib]QGTFTSDYSKYLEERAAK([AEEA-AEEA-γGlu-C18 diacid])EFIAWLEAGGPSSG-NH2; N-terminus assumed), the EC50 (GC receptor) is reported as 0.026 nM, the “Rate of change in food intake (%)” value [1] is reported as −49% and the “Body weight change” value [1] is reported as -1.3 g.
Work on CCCCCCCCCCCCCCCC(=O)N[C@@H](CCC(=O)N[C@@H](CCC(=O)NCCCC[C@H](NC(=O)[C@H](CC(=O)O)NC(=O)[C@H](CO)NC(=O)[C@@H](NC(=O)[C@H](Cc1ccccc1)NC(=O)[C@@H](NC(=O)CNC(=O)[C@H](CCC(N)=O)NC(=O)C(C)(C)NC(=O)[C@@H](N)Cc1c[nH]cn1)[C@@H](C)O)[C@@H](C)O)C(=O)N[C@@H](CO)C(=O)N[C@@H](CCCCN)C(=O)N[C@@H](Cc1ccc(O)cc1)C(=O)N[C@@H](CC(C)C)C(=O)N[C@@H](CCC(=O)O)C(=O)N[C@@H](CCC(=O)O)C(=O)N[C@@H](CCCNC(=N)N)C(=O)N[C@@H](C)C(=O)N[C@@H](C)C(=O)N[C@@H](CCCCN)C(=O)N[C@@H](CCC(=O)O)C(=O)N[C@@H](Cc1ccccc1)C(=O)N[C@H](C(=O)N[C@@H](CCC(=O)O)C(=O)N[C@@H](Cc1c[nH]c2ccccc12)C(=O)N[C@@H](CC(C)C)C(=O)N[C@@H](CC(C)C)C(=O)N[C@@H](CCC(=O)O)C(=O)N[C@@H](C)C(=O)NCC(=O)NCC(=O)N1CCC[C@H]1C(=O)N[C@@H](CO)C(=O)N[C@@H](CO)C(=O)NCC(N)=O)C(C)C)C(=O)O)C(=O)O [Compound 25] (HELM PEPTIDE1{H.[Aib].Q.G.T.F.T.S.D.K.S.K.Y.L.E.E.R.A.A.K.E.F.V.E.W.L.L.E.A.G.G.P.S.S.G.[am]}|PEPTIDE2{[CCCCCCCCCCCCCCCC(=O)[*:2]].[gGlu].[gGlu]}$PEPTIDE1,PEPTIDE2,10:R3-3:R2$$$V2.0; N-terminus assumed) yielded an EC50 (GC receptor) of 0.278 nM, a solubility (physchem; [2]) of 300 µg/mL (≈ 69.2 µM) and a solubility (physchem; [3]) of 100 µg/mL (≈ 23.1 µM). For the same compound, the solubility (physchem; [4]) was 500 µg/mL (≈ 115 µM) and the solubility (physchem; [5]) was 200 µg/mL (≈ 46.1 µM).
With CCCCCCCCCCCCCCCC(=O)N[C@@H](CCC(=O)N[C@@H](CCC(=O)NCCCC[C@H](NC(=O)[C@H](CC(=O)O)NC(=O)[C@H](CO)NC(=O)[C@@H](NC(=O)[C@H](Cc1ccccc1)NC(=O)[C@@H](NC(=O)CNC(=O)[C@H](CCC(N)=O)NC(=O)C(C)(C)NC(=O)[C@@H](N)Cc1c[nH]cn1)[C@@H](C)O)[C@@H](C)O)C(=O)N[C@@H](CO)C(=O)N[C@@H](CCCCN)C(=O)N[C@@H](Cc1ccc(O)cc1)C(=O)N[C@@H](CC(C)C)C(=O)N[C@@H](CCC(=O)O)C(=O)N[C@@H](CCC(=O)O)C(=O)N[C@@H](CCCNC(=N)N)C(=O)N[C@@H](C)C(=O)N[C@@H](C)C(=O)N[C@@H](CCCCN)C(=O)N[C@@H](CCC(=O)O)C(=O)N[C@@H](Cc1ccccc1)C(=O)N[C@H](C(=O)N[C@@H](C)C(=O)N[C@@H](Cc1c[nH]c2ccccc12)C(=O)N[C@@H](CC(C)C)C(=O)N[C@@H](CCC(=O)O)C(=O)NCC(=O)NCC(=O)N1CCC[C@H]1C(=O)N[C@@H](CO)C(=O)N[C@@H](CO)C(=O)NCC(N)=O)[C@@H](C)CC)C(=O)O)C(=O)O [Compound 21] (HELM PEPTIDE1{H.[Aib].Q.G.T.F.T.S.D.K.S.K.Y.L.E.E.R.A.A.K.E.F.I.A.W.L.E.G.G.P.S.S.G.[am]}|PEPTIDE2{[CCCCCCCCCCCCCCCC(=O)[*:2]].[gGlu].[gGlu]}$PEPTIDE1,PEPTIDE2,10:R3-3:R2$$$V2.0; N-terminus assumed) the EC50 (GC receptor) was 0.175 nM, the solubility (physchem; [2]) was > 2000 µg/mL and the solubility (physchem; [3]) was > 2000 µg/mL.
